Laboratory results: patent publication US20050038044A1, “Use of propionyl-carnitine or one of its pharmacologically acceptable salts for the preparation of a medicine for the treatment of la peyronie's disease” (priority 2001, published 2005)

Tests used:
[1] = system: chemically induced inflammation of both the skin and the arteries; settings: rats; cited from earlier work
[2] = system: induratio penis plastica in the chronic stage; assay: Example 3: intraplaque triamcinolone acetonide versus intraplaque propionyl L-carnitine; type: in vivo, human
Procedure: (§1) The examples are based on a limited number of patients and therefore the analysis of the results was carried out only with regard to the fundamental characteristics of the disease, namely plaque area in mm^2 (as measured by means of dynamic colour Doppler ultrasonography) and curvature of the artificially erect penis induced by intracavernous injection of 20 μg of prostaglandin E1.
In this case […] the study population consisted of 34 patients (mean age 50, range 44-63) with induratio penis plastica in the chronic stage, who presented an irremediable intolerance to intraplaque verapamil.
17 were submitted to intraplaque infiltrations with propionyl L-carnitine 300 mg, 1 infiltration per week for 10 weeks, and 17 to intraplaque infiltrations with triamcinolone acetonide 40 mg (Kenacort® Squibb), 1 infiltration per week for 10 weeks. The variables measured were plaque area in mm^2 by dynamic colour Doppler ultrasonography and the curvature of the artificially erect penis in degrees.
The results are presented in Table 3, where the data are expressed as mean±standard deviation (S.D.).

[3] = system: La Peyronie's disease in the early stages; settings: oral treatment; acute and early chronic stages; cited from earlier work
[4] = system: induratio penis plastica at an advanced chronic stage; assay: Example 6: oral propionyl L-carnitine versus oral acetyl L-carnitine, each plus intraplaque verapamil; type: in vivo, human
Procedure: 20 subjects (mean age 48, range 40-61) with induratio penis plastica at an advanced chronic stage were randomised to two groups of 10 patients each. The first group was submitted to therapy with oral propionyl L-carnitine (PLC) 1×2 g/day 3 months and intraplaque verapamil 10 mg (10 infiltrations, 1 a week), while the second group was submitted to therapy with oral acetyl L-carnitine (ALC) 1×2 g/day for 3 months+intraplaque verapamil 10 mg (10 infiltrations, 1 a week). The variables measured were plaque area by dynamic colour Doppler penile ultrasonography. In view of the limited number of subjects in the sample it was not possible to carry out any analysis of other data; in any event, the size of the plaque is the most important variable when monitoring La Peyronie's disease, since all the other symptoms depend on the extent of the plaque (Belgrano, ibid.).
The results are presented in Table 14, where the data are expressed as mean±standard deviation (S.D.).

[5] = system: induratio penis plastica in the early chronic stage; assay: Example 2: oral tamoxifen versus intramuscular propionyl L-carnitine, randomised patients; type: in vivo, human
Procedure: as §1
30 subjects (mean age 50, range 42-63) with induratio penis plastica in the early chronic stage were randomised to two groups of 15 patients each. The first group was submitted to therapy with intramuscular propionyl L-carnitine 300×2 mg/day for 3 months, and the second group to therapy with oral tamoxifen 20×2 mg/day. The variables measured were plaque area (in all subjects) and penile curvature, which was present in 12 subjects per group. […] Intraplaque verapamil was not used in these patients.
The results are presented in Table 2, where the data are expressed as mean±standard deviation (S.D.).

[6] = system: induratio penis plastica (La Peyronie's disease) at the chronic stage; assay: Example 1: oral tamoxifen versus intravenous propionyl L-carnitine, randomised patients; type: in vivo, human
Procedure: as §1
40 subjects (mean age 52, range 44-61) with induratio penis plastica (La Peyronie's disease) at the chronic stage were randomised […] intravenous propionyl L-carnitine 300×2 mg/day for 3 months, and the second group to therapy with oral tamoxifen 20×2 mg/day. The variables measured were plaque area by means of dynamic colour Doppler ultrasonography and penile curvature, which was present in 16 patients per group. […] Intraplaque verapamil was not used in these patients.
The results are presented in Table 1, where the data are expressed as mean±standard deviation (S.D.).

[7] = system: advanced La Peyronie's disease; assay: Example 4: randomised double-blind study, intraplaque verapamil plus oral propionyl L-carnitine or tamoxifen; type: in vivo, human; settings: curvature, plaque area, I.I.E.F. 15 score, EDV, RI
Procedure: The study was conducted according to a randomised double-blind protocol. […] The data were collected 6 months after the end of therapy when the initial history taking and semeiological examination were repeated. […] I.I.E.F. 15 score; • V. Peak systolic velocity (PSV) (cm/sec), end-diastolic velocity (EDV) (cm/sec) and the resistivity index (RI) of the right and left cavernous arteries using dynamic Doppler ultrasonography; • VI. […] Need for penis straightening surgery and/or for straightening and a prosthesis, the results being classified as presence or absence of any such need; • VIII. Side effects classified as presence or absence of side effects.

[8] = after therapy, intraplaque PLC 300 mg or triamcinolone acetonide 40 mg, 1 infiltration per week for 10 weeks
[9] = after therapy, oral 1×2 g/day for 3 months + intraplaque verapamil 10 mg (10 infiltrations, 1 a week)
[10] = after therapy, PLC intramuscular 300×2 mg/day, tamoxifen oral 20×2 mg/day, 3 months
[11] = before therapy, 12 subjects per group
[12] = after therapy, PLC intravenous 300×2 mg/day, tamoxifen oral 20×2 mg/day, 3 months
[13] = before therapy, artificially erect penis, 16 patients per group

Structure (SMILES)	Protection against chemically induced inflammation, in words [1]	Curvature [2, 8]	Plaque area [2, 8]	Curvature ([2]; before therapy)	Plaque area ([2]; before therapy, mean)	Plaque area [4, 9]	Plaque area ([4]; before therapy, mean)	Curvature [5, 10]	Plaque area [5, 10]	Curvature [5, 11]	Plaque area ([5]; before therapy, mean)	Curvature [6, 12]	Plaque area [6, 12]	Curvature [6, 13]	Plaque area ([6]; before therapy, mean)	also measured
C[N+](C)(C)C[C@H](O)CC(=O)[O-] [L-carnitine]	not being shared	–	–	–	–	–	–	–	–	–	–	–	–	–	–	–
CC1(C)O[C@@H]2C[C@H]3[C@@H]4CCC5=CC(=O)C=C[C@]5(C)[C@@]4(F)[C@@H](O)C[C@]3(C)[C@]2(C(=O)CO)O1 [Triamcinolone, triamcinolone acetonide, reference compound]	–	23.15 degrees	25.35 mm^2	22.69 degrees	25.23 mm^2	–	–	–	–	–	–	–	–	–	–	–
CC(=O)O[C@H](CC(=O)[O-])C[N+](C)(C)C [ALC, acetyl L-carnitine, reference compound]	not being shared	–	–	–	–	11.8 mm^2	16.3 mm^2	–	–	–	–	–	–	–	–	Activity in the treatment of La Peyronie's disease, in words [3]: significantly more active than tamoxifen
CCC(=O)O[C@H](CC(=O)[O-])C[N+](C)(C)C [PLC, propionyl L-carnitine]	capable of affording protection	14.77 degrees	15.47 mm^2	20.38 degrees	26.65 mm^2	7.9 mm^2	16.4 + mm^2	13.00 degrees	6.47 mm^2	17.75 degrees	11.1 mm^2	20.06 degrees	19.2 mm^2	25.31 degrees	25.6 mm^2	Reduction of plaque area and curvature of the artificially erect penis, in words ([5]; intramuscular PLC compared with oral tamoxifen): significantly greater extent than tamoxifen; Reduction of plaque area and curvature of the artificially erect penis, in words ([6]; intravenous PLC compared with oral tamoxifen): significantly greater extent than tamoxifen; Activity on plaque area and curvature, in words ([2]; intraplaque PLC compared with intraplaque triamcinolone acetonide): significantly more active than triamcinolone acetonide; Reduction of plaque area, in words ([4]; PLC plus intraplaque verapamil compared with ALC plus intraplaque verapamil): significantly greater extent than acetyl L-carnitine plus intraplaque verapamil; Activity on the variables characterising the disease, in words [7]: significantly more active than combined tamoxifen and verapamil
CC/C(=C(\c1ccccc1)c1ccc(OCCN(C)C)cc1)c1ccccc1 [Tamoxifen, tamoxifen, reference compound]	–	–	–	–	–	–	–	16.58 degrees	9.07 mm^2	18.08 degrees	11.6 mm^2	23.06 degrees	25.2 mm^2	24.31 degrees	26.8 mm^2	–
